Biological target: PIK3CA (human) (UniProt P42336)
Assay: Assessment of PIK3CA Kinase Activity

Chain of PIK3CA (human) (P42336 whole entry, looked up): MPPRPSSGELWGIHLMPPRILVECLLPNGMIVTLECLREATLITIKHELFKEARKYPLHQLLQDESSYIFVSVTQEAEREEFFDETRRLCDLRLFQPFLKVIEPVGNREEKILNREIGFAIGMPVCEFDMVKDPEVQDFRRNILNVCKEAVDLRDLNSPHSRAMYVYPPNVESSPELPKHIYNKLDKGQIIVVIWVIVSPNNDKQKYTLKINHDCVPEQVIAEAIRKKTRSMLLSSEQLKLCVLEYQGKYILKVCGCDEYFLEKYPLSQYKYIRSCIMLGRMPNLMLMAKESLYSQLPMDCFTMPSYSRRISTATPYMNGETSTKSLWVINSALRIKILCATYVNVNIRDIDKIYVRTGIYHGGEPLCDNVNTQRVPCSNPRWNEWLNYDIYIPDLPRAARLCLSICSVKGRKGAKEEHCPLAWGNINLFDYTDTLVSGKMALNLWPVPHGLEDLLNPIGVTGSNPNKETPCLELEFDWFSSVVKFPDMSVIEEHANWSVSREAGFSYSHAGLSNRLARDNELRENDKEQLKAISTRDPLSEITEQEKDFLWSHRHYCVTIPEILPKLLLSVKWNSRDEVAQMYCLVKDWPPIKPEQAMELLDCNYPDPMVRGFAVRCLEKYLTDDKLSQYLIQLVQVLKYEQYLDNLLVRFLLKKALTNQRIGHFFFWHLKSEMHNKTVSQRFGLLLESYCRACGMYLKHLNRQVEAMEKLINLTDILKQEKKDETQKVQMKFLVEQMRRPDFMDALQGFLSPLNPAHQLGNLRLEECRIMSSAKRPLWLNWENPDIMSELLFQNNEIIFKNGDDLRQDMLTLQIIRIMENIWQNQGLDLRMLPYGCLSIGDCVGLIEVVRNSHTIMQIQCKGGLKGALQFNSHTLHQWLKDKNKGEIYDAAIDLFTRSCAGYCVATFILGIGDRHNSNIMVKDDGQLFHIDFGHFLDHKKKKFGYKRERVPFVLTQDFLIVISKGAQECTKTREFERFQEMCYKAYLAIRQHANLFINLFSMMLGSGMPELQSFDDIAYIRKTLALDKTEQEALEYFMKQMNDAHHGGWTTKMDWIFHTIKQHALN

Compound	IC50 [nM]
CC[C@H](Oc1ccc2c(c1)OCCn1cc(-c3ncnn3C(C)C)nc1-2)C(N)=O	< 1000
COCc1nc(-c2cn3c(n2)-c2ccc(C4CCN(CC(N)=O)CC4)cc2OCC3)n(C(C)C)n1	< 1000
CC(C)n1ncnc1-c1cn2c(n1)-c1ccc(-c3ccccc3CO)cc1OCC2	< 1000
CC(C)n1nc(N)nc1-c1cn2c(n1)-c1ccc(C3CC3)cc1OCC2	< 1000
CC(C)n1nccc1-c1cn2c(n1)-c1cc(C(N)=O)ccc1OCC2	< 1000
CC(C)N1CCN(C(=O)c2ccc3c(c2)-c2nc(-c4ncnn4CC(F)(F)F)cn2CCO3)CC1	< 1000
CC(C)n1ncnc1-c1cn2c(n1)-c1ccc(-c3cn(CCO)cn3)cc1OCC2	< 1000
CC(C)n1ncnc1-c1cn2c(n1)-c1cnccc1OCC2	< 1000
CC(C)(CO)NC(=O)c1ccc2c(c1)OCCn1cc(-c3ncnn3-c3ccccc3Cl)nc1-2	< 1000
CCNC(=O)CN1CCC(c2ccc3c(c2)OCCn2cc(-c4nc(C)nn4C(C)C)nc2-3)CC1	< 1000
CC(C)n1cnnc1-n1cc2c(n1)-c1ccccc1OCC2	< 1000
Cc1nc(-c2cn3c(n2)-c2ccc(C4CCN(CCO)CC4)cc2OCC3)n(C(C)C)n1	< 1000
Nc1nc(-c2cn3c(n2)-c2cc(F)ccc2OCC3)n(CC(F)(F)F)n1	< 1000
CC(C)n1ncnc1-c1cn2c(n1)-c1ccc(C3CCN(C(C)(C)C(N)=O)CC3)cc1OCC2	< 1000
CC(C)n1nccc1-c1cn2c(n1)-c1cnc(Cl)cc1OCC2	< 1000
Clc1ccc(-c2ccc3c(c2)OCCn2cc(-c4ncnn4-c4ccccc4Cl)nc2-3)cc1	< 1000
Cc1nc(-c2cn3c(n2)-c2ccc([C@H]4CCCN4C(N)=O)cc2OCC3)n(C(C)C)n1	< 1000
C[C@@H](Oc1ccc2c(c1)OCCn1cc(-c3ncnn3CC(F)(F)F)nc1-2)C(N)=O	< 1000

Compound	IC50 [nM]
CC(C)n1ncnc1-c1cn2c(n1)-c1ccc(C3CN(C(=O)C4(N)CC4)C3)cc1OCC2	< 1000
CC(C)n1ncnc1-c1cn2c(n1)-c1ccc(N[C@@H](C)C(N)=O)cc1OCC2	< 1000
CC(C)n1ncnc1-c1cn2c(n1)-c1ccc(C3CCN(C(=O)C(C)(C)O)CC3)cc1OCC2	< 1000
Cc1nc(-c2ccc3c(c2)OCCn2cc(-c4ncnn4C(C)C)nc2-3)cn1CC(C)(C)O	< 1000
CC(C)n1ncnc1-n1cc2c(n1)-c1cc(C(=O)NCCO)ccc1OCC2	< 1000
COCc1nc(-c2cn3c(n2)-c2ccc(-c4cnn(CC(C)(C)O)c4)cc2OCC3)n(C(C)C)n1	< 1000
CC(C)[C@@H](Oc1ccc2c(c1)OCCn1cc(-c3ncnn3CC(F)(F)F)nc1-2)C(N)=O	< 1000
CCOC(=O)C(C)Cn1cc(-c2ccc3c(c2)OCCn2cc(-c4nc(C)nn4C(C)C)nc2-3)cn1 (stereo not given)	< 1000
CC(C)n1ncnc1-c1cn2c(n1)-c1ccc(OC(F)F)cc1OCC2	< 1000
NC(=O)CN1CCC(c2ccc3c(c2)-n2nc(-c4ncnn4CC(F)(F)F)cc2CCO3)CC1	< 1000
CC(C)n1ncnc1-c1cn2c(n1)-c1ccc(C3CCN(CC(=O)N(C)C)CC3)cc1OCC2	< 1000
Clc1ccc(-c2ccc3c(c2)-c2nc(-c4ncnn4-c4ccccc4Cl)cn2CCO3)cc1	< 1000
CC(C)n1ncnc1-c1cn2c(n1)-c1cnc(NCC(O)c3nccn3C)cc1OCC2 (stereo not given)	< 1000
CNC(=O)C(C)(C)N1CCC(c2ccc3c(c2)OCCn2cc(-c4ncnn4C(C)C)nc2-3)C(O)C1 (stereo not given)	< 1000
CC(C)n1ncnc1-c1cn2c(n1)-c1ccc(C3CCN(CC(C)(C)O)CC3)cc1OCC2	< 1000
CC(C)n1ncnc1-c1cn2c(n1)-c1ccc(C3CN(S(=O)(=O)CCN4CC(F)C4)C3)cc1OCC2	< 1000
CC(C)n1nc(N)nc1-c1cn2c(n1)-c1ccc(-c3cn(CCO)cn3)cc1OCC2	< 1000
CC(C)n1ncnc1-c1cn2c(n1)-c1ccc([C@H]3CCNC[C@@H]3O)cc1OCC2	< 1000

The next lines start with the values.

IC50 [nM]	Compound
< 1000	Cc1nc(-c2cn3c(n2)-c2cnc(N4C[C@H](O)C[C@H]4C(N)=O)cc2OCC3)n(C(C)C)n1
< 1000	Cc1nc(-c2cn3c(n2)-c2ccc(C4CCN(CC(=O)N(C)C)CC4)cc2OCC3)n(C(C)C)n1
< 1000	OCc1nc(-c2cn3c(n2)-c2cnc(N4CCCC4)cc2OCC3)n(CC(F)(F)F)n1
< 1000	CC(C)(O)Cn1cc(-c2ccc3c(c2)OCCn2cc(C(=O)N4CCS(=O)(=O)CC4)nc2-3)cn1
< 1000	Cc1nc(-c2cn3c(n2)-c2ccc(CCC(N)=O)cc2OCC3)n(C(C)C)n1
< 1000	Cc1n[nH]c(-c2cn3c(n2)-c2ccc(-c4cnn(CCO)c4)cc2OCC3)n1
< 1000	CC(C)n1ncnc1-c1cn2c(n1)-c1cnc(N3C[C@H](C#N)C[C@H]3C(N)=O)cc1OCC2
< 1000	CC(C)n1ncnc1-c1cn2c(n1)-c1ccc([C@@H](C)C(N)=O)cc1OCC2
< 1000	CC(C)n1ncnc1-c1cn2c(n1)-c1cnc(N(C)CC(N)=O)cc1OCC2
< 1000	Cc1ccc2c(c1)-c1nc(-c3nc(C)nn3C(C)C)cn1CCO2
< 1000	NC(=O)c1ccc2c(c1)OCCc1cn(-c3ncnn3-c3ccc(F)cc3F)nc1-2
< 1000	Cn1ccnc1C(O)CNc1cc2c(cn1)-c1nc(-c3ncnn3-c3ccc(F)cc3F)cn1CCO2 (stereo not given)
< 1000	CC(C)n1ccnc1-c1cn2c(n1)-c1cnccc1OCC2
< 1000	CC(C)n1ncnc1-c1cn2c(n1)-c1ccc(O[C@@H](C)C(=O)O)cc1OCC2
< 1000	CC(C)n1ncnc1-c1cn2c(n1)-c1ccc(-c3ccccc3S(C)(=O)=O)cc1OCC2
< 1000	CCOc1ccc2c(c1)OCCn1cc(-c3nc(C)nn3C(C)C)nc1-2
< 1000	CC(C)C(Oc1ccc2c(c1)OCCn1cc(-c3ncnn3C(C)C)nc1-2)C(N)=O (stereo not given)

IC50 [nM]	Compound
< 1000	COCc1nc(-c2cn3c(n2)-c2ccccc2OCC3)n(C(C)C)n1
< 1000	CCN(CC)CCn1cc(-c2ccc3c(c2)OCCn2cc(-c4ncnn4C(C)C)nc2-3)cn1
< 1000	CC(C)n1nc(N)nc1-c1cn2c(n1)-c1cc(F)ccc1OCC2
< 1000	CC(C)n1ncnc1-c1cn2c(n1)-c1cnc(N3CCOCC3)cc1OCC2
< 1000	CC(C)n1ncnc1-c1cn2c(n1)-c1ccc(N3CC[C@H]3C(N)=O)cc1OCC2
< 1000	CC(C)N1CCC(c2ccc3c(c2)OCCn2cc(-c4ncnn4C(C)C)nc2-3)C(C(N)=O)C1 (stereo not given)
< 1000	Cc1nc(-c2cn3c(n2)-c2ccc(C#N)cc2OCC3)n(C(C)C)n1
< 1000	CC(C)n1ncnc1-c1cn2c(n1)-c1cc(-c3ccc(=O)[nH]c3)ncc1OCC2
< 1000	CC(=O)N1CC(c2ccc3c(c2)-n2nc(-c4ncnn4C(C)C)cc2CCO3)C1
< 1000	Cc1nc(-c2cn3c(n2)-c2cnc(N4CCC[C@H]4C(N)=O)cc2OCC3)n(-c2cc(F)cc(F)c2)n1
< 1000	CC(C)n1ncnc1-c1cn2c(n1)-c1ccc(C(=O)NCCS(C)(=O)=O)cc1OCC2
< 1000	Cc1nc(-c2cn3c(n2)-c2cc(F)c(F)cc2OCC3)n(C(C)C)n1
< 1000	CC(C)n1ncnc1-c1cn2c(n1)-c1ccc(CC(=O)NO)cc1OCC2
< 1000	CC(C)n1ncnc1-c1cn2c(n1)-c1ccc(CC(=O)O)cc1OCC2
< 1000	O=c1[nH]cccc1-c1ccc2c(c1)-c1nc(-c3ncnn3CC(F)(F)F)cn1CCO2
< 1000	COCCN1CCC(c2ccc3c(c2)OCCn2cc(-c4ncnn4C(C)C)nc2-3)CC1
< 1000	CC(C)n1ncnc1-c1cn2c(n1)-c1ccc(N3C[C@@H](F)C[C@H]3C(N)=O)cc1OCC2

Reference: the Kinase Knowledgebase extract (Sharma et al. 2016)
